assay: recombinant UMI read abundance after kanamycin selection (control-corrected) (log10(CPM+1)); higher = more efficient recombination; extreme values may be limits of the assay; sequences stand for … in AGTGCAGAGAAAATCGGCCAGTTTTCTCTGCCTGCAGTCCGCATGCCGTGGGACCCCTTGGGTTCTAACCTGTTGCCTAGATTTATGCAGCGGACTGCCTTTCTCCCAAAGTGATAAACCGG…AGGTTGGTTTCACT; site = the 11-nt donor
In short: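 The measure is log10(CPM+1) for recombinant UMIs. These were PCR-amplified across the donor–target junction and sequenced after Escherichia coli carrying a donor and donor-binding-loop pair library and a target plasmid with T7-inducible IS621 bridge recombinase was plated on IPTG (0.07 mM) plus kanamycin or unselected. CPM were averaged over two replicates and scaled by control-derived factors.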
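Note: IS621 bridge recombinase in Escherichia coli cells against a fixed T5 target plasmid.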

| Sequence | recombinant UMI read abundance (log10) |
| --- | --- |
| GAGCTGCCATGGACCGGTTTTCCCGGTAATCCGTATTTGCG (site GAGCTGCCTCG) | 0.232 |
| GAGGAACCATGGACCGGTTTTCCCGGTAATCCGTATTTGTT (site GAGGAACCTAA) | 0 |
| GAGGATTCATGGACCGGTTTTCCCGGTAATCCGTATTTGTT (site GAAGATTCTAA) | 1.46 |
| GAGGATTCATGGACCGGTTTTCCCGGTAATCCGTATTTGTT (site GACGATTCTAA) | 0.365 |
| GAGGATTCATGGACCGGTTTTCCCGGTAATCCGTATTTGTT (site GAGGATTCTAA) | 2.83 |
| GAGGATTCATGGACCGGTTTTCCCGGTAATCCGTATTTGTT (site GATGATTCTAA) | 0.0156 |
| GAGGGGCCATGGACCGGTTTTCCCGGTAATCCGTATTTGGC (site GAGGGGCCTGC) | 0 |
| GAGTACCCATGGACCGGTTTTCCCGGTAATCCGTATTTGTT (site GAGTACCCTAA) | 0.0215 |
| GAGTGCGCATGGACCGGTTTTCCCGGTAATCCGTATTTGTC (site GAGTGCGCTGA) | 2.71 |
| GAGTGGCCATGGACCGGTTTTCCCGGTAATCCGTATTTGCA (site GAATGGCCTTG) | 0 |
| GAGTGGCCATGGACCGGTTTTCCCGGTAATCCGTATTTGCA (site GACTGGCCTTG) | 0 |
| GAGTGGCCATGGACCGGTTTTCCCGGTAATCCGTATTTGCA (site GAGTGGCCTTG) | 0 |
| GAGTGGCCATGGACCGGTTTTCCCGGTAATCCGTATTTGCA (site GATTGGCCTTG) | 0 |
| GAGTTGGCATGGACCGGTTTTCCCGGTAATCCGTATTTGTA (site GAGTTGGCTTA) | 2.18 |
| GATAAGGCATGGACCGGTTTTCCCGGTAATCCGTATTTGCG (site GATAAGGCTCG) | 1.83 |
| GATAAGGCATGGACCGGTTTTCCCGGTAATCCGTATTTGGC (site GATAAGGCTGC) | 1.3 |
| GATATGCCATGGACCGGTTTTCCCGGTAATCCGTATTTGCT (site GATATGCCTAG) | 0 |
| GATCCACCATGGACCGGTTTTCCCGGTAATCCGTATTTGGT (site GATCCACCTAC) | 0.0102 |
| GATCGACCATGGACCGGTTTTCCCGGTAATCCGTATTTGTC (site GATCGACCTGA) | 0 |
| GATCGAGCATGGACCGGTTTTCCCGGTAATCCGTATTTGCA (site GATCGAGCTTG) | 1.04 |
| GATCGAGCATGGACCGGTTTTCCCGGTAATCCGTATTTGCA (site GCTCGAGCTTG) | 1.17 |
| GATCGAGCATGGACCGGTTTTCCCGGTAATCCGTATTTGCA (site GGTCGAGCTTG) | 1.15 |
| GATCGAGCATGGACCGGTTTTCCCGGTAATCCGTATTTGCA (site GTTCGAGCTTG) | 1.58 |
| GATCGTGCATGGACCGGTTTTCCCGGTAATCCGTATTTGGC (site GATCGTGCTGC) | 1.18 |
| GATCTAACATGGACCGGTTTTCCCGGTAATCCGTATTTGTC (site GATCTAACTGA) | 0 |

| Sequence | recombinant UMI read abundance (log10) |
| --- | --- |
| GATCTGCCATGGACCGGTTTTCCCGGTAATCCGTATTTGAT (site GATCTGCCTAT) | 0.0121 |
| GATGAGACATGGACCGGTTTTCCCGGTAATCCGTATTTGAA (site GATGAGACTTT) | 1.82 |
| GATTAACCATGGACCGGTTTTCCCGGTAATCCGTATTTGCT (site GATTAACCTAG) | 0 |
| GATTAACCATGGACCGGTTTTCCCGGTAATCCGTATTTGCT (site GATTACCCTAG) | 0 |
| GATTAACCATGGACCGGTTTTCCCGGTAATCCGTATTTGCT (site GATTAGCCTAG) | 0 |
| GATTAACCATGGACCGGTTTTCCCGGTAATCCGTATTTGCT (site GATTATCCTAG) | 0.0295 |
| GATTAGCCATGGACCGGTTTTCCCGGTAATCCGTATTTGCT (site GATTAACCTAG) | 0 |
| GATTAGCCATGGACCGGTTTTCCCGGTAATCCGTATTTGCT (site GATTACCCTAG) | 0 |
| GATTAGCCATGGACCGGTTTTCCCGGTAATCCGTATTTGCT (site GATTAGCCTAG) | 0 |
| GATTAGCCATGGACCGGTTTTCCCGGTAATCCGTATTTGCT (site GATTATCCTAG) | 0 |
| GATTATACATGGACCGGTTTTCCCGGTAATCCGTATTTGCT (site GATTATACTAG) | 1.87 |
| GATTATACATGGACCGGTTTTCCCGGTAATCCGTATTTGCT (site GATTATCCTAG) | 0 |
| GATTATACATGGACCGGTTTTCCCGGTAATCCGTATTTGCT (site GATTATGCTAG) | 0 |
| GATTATACATGGACCGGTTTTCCCGGTAATCCGTATTTGCT (site GATTATTCTAG) | 0 |
| GATTATCCATGGACCGGTTTTCCCGGTAATCCGTATTTGCA (site GATTATCCTAG) | 0 |
| GATTATCCATGGACCGGTTTTCCCGGTAATCCGTATTTGCA (site GATTATCCTCG) | 0 |
| GATTATCCATGGACCGGTTTTCCCGGTAATCCGTATTTGCA (site GATTATCCTGG) | 0 |
| GATTATCCATGGACCGGTTTTCCCGGTAATCCGTATTTGCA (site GATTATCCTTG) | 0 |
| GATTATCCATGGACCGGTTTTCCCGGTAATCCGTATTTGCG (site GATTATCCTAG) | 0 |
| GATTATCCATGGACCGGTTTTCCCGGTAATCCGTATTTGCG (site GATTATCCTCG) | 0.363 |
| GATTATCCATGGACCGGTTTTCCCGGTAATCCGTATTTGCG (site GATTATCCTGG) | 0 |
| GATTATCCATGGACCGGTTTTCCCGGTAATCCGTATTTGCG (site GATTATCCTTG) | 0 |
| GATTATTCATGGACCGGTTTTCCCGGTAATCCGTATTTGCT (site GATTATACTAG) | 0 |
| GATTATTCATGGACCGGTTTTCCCGGTAATCCGTATTTGCT (site GATTATCCTAG) | 0 |
| GATTATTCATGGACCGGTTTTCCCGGTAATCCGTATTTGCT (site GATTATGCTAG) | 0 |

| Sequence | recombinant UMI read abundance (log10) |
| --- | --- |
| GATTATTCATGGACCGGTTTTCCCGGTAATCCGTATTTGCT (site GATTATTCTAG) | 1.96 |
| GATTCACCATGGACCGGTTTTCCCGGTAATCCGTATTTGCG (site GATTCACCTCG) | 0.00637 |
| GATTCCCCATGGACCGGTTTTCCCGGTAATCCGTATTTGGG (site TTAGGTTCTGA) | 0 |
| GATTCTCCATGGACCGGTTTTCCCGGTAATCCGTATTTGCT (site GATTATCCTAG) | 0 |
| GATTCTCCATGGACCGGTTTTCCCGGTAATCCGTATTTGCT (site GATTCTCCTAG) | 0.753 |
| GATTCTCCATGGACCGGTTTTCCCGGTAATCCGTATTTGCT (site GATTGTCCTAG) | 0 |
| GATTCTCCATGGACCGGTTTTCCCGGTAATCCGTATTTGCT (site GATTTTCCTAG) | 0 |
| GATTGGACATGGACCGGTTTTCCCGGTAATCCGTATTTGGC (site GATTGGACTGA) | 0 |
| GATTGGACATGGACCGGTTTTCCCGGTAATCCGTATTTGGC (site GATTGGACTGC) | 1.65 |
| GATTGGACATGGACCGGTTTTCCCGGTAATCCGTATTTGGC (site GATTGGACTGG) | 0 |
| GATTGGACATGGACCGGTTTTCCCGGTAATCCGTATTTGGC (site GATTGGACTGT) | 1.63 |
| GATTGGCCATGGACCGGTTTTCCCGGTAATCCGTATTTGAC (site GATTGGACTGT) | 0 |
| GATTGGCCATGGACCGGTTTTCCCGGTAATCCGTATTTGAC (site GATTGGCCTGT) | 0 |
| GATTGGCCATGGACCGGTTTTCCCGGTAATCCGTATTTGAC (site GATTGGGCTGT) | 0 |
| GATTGGCCATGGACCGGTTTTCCCGGTAATCCGTATTTGAC (site GATTGGTCTGT) | 0 |
| GATTGGCCATGGACCGGTTTTCCCGGTAATCCGTATTTGCA (site GAATGGCCTTG) | 0 |
| GATTGGCCATGGACCGGTTTTCCCGGTAATCCGTATTTGCA (site GACTGGCCTTG) | 0 |
| GATTGGCCATGGACCGGTTTTCCCGGTAATCCGTATTTGCA (site GAGTGGCCTTG) | 0 |
| GATTGGCCATGGACCGGTTTTCCCGGTAATCCGTATTTGCA (site GATTGGCCTTG) | 0.00508 |
| GATTGGGCATGGACCGGTTTTCCCGGTAATCCGTATTTGAC (site GATTGGACTGT) | 0.803 |
| GATTGGGCATGGACCGGTTTTCCCGGTAATCCGTATTTGAC (site GATTGGCCTGT) | 0 |
| GATTGGGCATGGACCGGTTTTCCCGGTAATCCGTATTTGAC (site GATTGGGCTGT) | 1.51 |
| GATTGGGCATGGACCGGTTTTCCCGGTAATCCGTATTTGAC (site GATTGGTCTGT) | 0 |
| GATTGGTCATGGACCGGTTTTCCCGGTAATCCGTATTTGAC (site GATTGGACTGT) | 0 |
| GATTGGTCATGGACCGGTTTTCCCGGTAATCCGTATTTGAC (site GATTGGCCTGT) | 0 |
